Test results taken from ChEMBL document CHEMBL5346943, “Discovery and Structural Optimization of Novel Quinolone Derivatives as Potent Irreversible Pan-Fibroblast Growth Factor Receptor Inhibitors for Treating Solid Tumors” (J Med Chem, 2023).

How the values were obtained:
Hep 3B2 = assay: Antiproliferative activity against human Hep3B cells incubated for 72 hrs by Cell counting kit 8 method; format: functional, cell-based
Huh-7 = assay: Antiproliferative activity against human Huh-7 cells incubated for 72 hrs by Cell counting kit 8 method; format: functional, cell-based; conditions: Huh-7, 72 h
[1] = target: T1, Fibroblast growth factor receptor 4 (Homo sapiens, UniProt P22455); assay: Inhibition of FGFR4 (unknown origin) incubated for 10 mins followed by substrate addition measured after 60 mins by ADP-Glo luminescence assay
Target sequence in this assay (P22455 whole entry): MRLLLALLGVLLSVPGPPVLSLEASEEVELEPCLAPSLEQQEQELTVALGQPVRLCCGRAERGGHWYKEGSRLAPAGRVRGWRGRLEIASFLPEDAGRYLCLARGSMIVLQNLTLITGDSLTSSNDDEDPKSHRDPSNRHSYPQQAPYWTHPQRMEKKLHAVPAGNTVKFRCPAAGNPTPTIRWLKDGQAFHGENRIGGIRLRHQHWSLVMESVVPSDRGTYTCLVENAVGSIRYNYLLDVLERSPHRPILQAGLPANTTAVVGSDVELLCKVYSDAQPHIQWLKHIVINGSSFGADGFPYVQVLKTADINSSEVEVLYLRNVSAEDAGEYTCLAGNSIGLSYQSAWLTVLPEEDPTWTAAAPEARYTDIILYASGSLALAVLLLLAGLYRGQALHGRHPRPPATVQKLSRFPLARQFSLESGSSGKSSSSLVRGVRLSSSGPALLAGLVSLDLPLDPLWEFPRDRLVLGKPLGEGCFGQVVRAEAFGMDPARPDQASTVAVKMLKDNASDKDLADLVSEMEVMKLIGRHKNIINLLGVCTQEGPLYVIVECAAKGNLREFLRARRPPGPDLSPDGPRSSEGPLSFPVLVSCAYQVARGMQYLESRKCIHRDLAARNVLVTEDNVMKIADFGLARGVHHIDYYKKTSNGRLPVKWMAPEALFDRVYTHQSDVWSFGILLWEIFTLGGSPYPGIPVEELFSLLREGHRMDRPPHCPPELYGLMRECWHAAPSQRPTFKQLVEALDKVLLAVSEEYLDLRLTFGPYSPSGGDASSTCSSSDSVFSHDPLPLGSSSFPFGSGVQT

[2] = target: T1, Fibroblast growth factor receptor 4; assay: Inhibition of FGFR4 (unknown origin) at 100 nM incubated for 10 mins followed by substrate addition measured after 60 mins by ADP-Glo luminescence assay relative to control; conditions: time 70.0 min
Target sequence in this assay (P22455 22-802 limits assumed): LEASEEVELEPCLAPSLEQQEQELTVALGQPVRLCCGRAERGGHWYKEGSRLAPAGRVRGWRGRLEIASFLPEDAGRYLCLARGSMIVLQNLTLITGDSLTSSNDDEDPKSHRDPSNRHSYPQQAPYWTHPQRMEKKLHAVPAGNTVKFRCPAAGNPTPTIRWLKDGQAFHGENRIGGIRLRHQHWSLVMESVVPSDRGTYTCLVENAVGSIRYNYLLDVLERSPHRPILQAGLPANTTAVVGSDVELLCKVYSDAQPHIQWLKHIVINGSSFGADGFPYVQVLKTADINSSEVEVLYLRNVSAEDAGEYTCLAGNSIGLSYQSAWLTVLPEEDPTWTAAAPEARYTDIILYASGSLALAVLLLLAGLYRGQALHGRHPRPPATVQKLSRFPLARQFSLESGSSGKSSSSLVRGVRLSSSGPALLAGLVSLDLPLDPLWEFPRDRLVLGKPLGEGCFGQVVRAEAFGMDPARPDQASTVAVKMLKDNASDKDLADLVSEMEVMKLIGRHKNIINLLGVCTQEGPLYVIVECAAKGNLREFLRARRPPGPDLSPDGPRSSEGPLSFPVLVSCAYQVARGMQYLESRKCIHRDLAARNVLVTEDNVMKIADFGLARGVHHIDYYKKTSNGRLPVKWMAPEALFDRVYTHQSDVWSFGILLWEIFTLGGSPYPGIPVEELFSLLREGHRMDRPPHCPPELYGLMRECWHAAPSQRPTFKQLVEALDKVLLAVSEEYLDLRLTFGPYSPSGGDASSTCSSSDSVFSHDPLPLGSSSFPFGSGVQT

[3] = target: Fibroblast growth factor receptor 2 (Homo sapiens, UniProt P21802); assay: Inhibition of FGFR2 (unknown origin) incubated for 10 mins followed by substrate addition measured after 60 mins by ADP-Glo luminescence assay
Sequence of Fibroblast growth factor receptor 2 (P21802 whole entry): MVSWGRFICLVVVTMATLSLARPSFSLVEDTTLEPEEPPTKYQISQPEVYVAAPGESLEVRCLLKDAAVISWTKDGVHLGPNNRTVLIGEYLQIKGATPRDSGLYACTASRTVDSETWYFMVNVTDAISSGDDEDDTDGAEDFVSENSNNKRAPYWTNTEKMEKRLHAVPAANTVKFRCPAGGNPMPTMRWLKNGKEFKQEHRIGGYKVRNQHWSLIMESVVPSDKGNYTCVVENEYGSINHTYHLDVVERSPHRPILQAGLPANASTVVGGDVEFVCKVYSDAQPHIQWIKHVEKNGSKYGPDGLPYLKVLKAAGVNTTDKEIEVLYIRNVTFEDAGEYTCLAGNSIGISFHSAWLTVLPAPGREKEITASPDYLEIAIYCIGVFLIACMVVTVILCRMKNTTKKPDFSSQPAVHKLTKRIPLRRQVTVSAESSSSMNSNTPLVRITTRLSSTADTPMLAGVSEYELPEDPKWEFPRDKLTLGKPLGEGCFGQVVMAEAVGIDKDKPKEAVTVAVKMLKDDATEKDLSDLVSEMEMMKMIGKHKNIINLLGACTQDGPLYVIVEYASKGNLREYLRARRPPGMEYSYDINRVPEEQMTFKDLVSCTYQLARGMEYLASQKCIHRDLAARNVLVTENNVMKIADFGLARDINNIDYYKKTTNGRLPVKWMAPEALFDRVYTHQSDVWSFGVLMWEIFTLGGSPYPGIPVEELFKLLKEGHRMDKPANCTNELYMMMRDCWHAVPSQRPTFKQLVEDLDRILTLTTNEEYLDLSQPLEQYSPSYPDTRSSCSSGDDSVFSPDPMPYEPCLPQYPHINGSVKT

[4] = Ionization constant, pKa of the compound in PBS buffer at pH 1.42 to 12.33 by electrochemical method; format: physicochemical
[5] = target: Fibroblast growth factor receptor 1 (Homo sapiens, UniProt P11362); assay: Inhibition of FGFR1 (unknown origin) incubated for 10 mins followed by substrate addition measured after 60 mins by ADP-Glo luminescence assay
Sequence of Fibroblast growth factor receptor 1 (P11362 whole entry): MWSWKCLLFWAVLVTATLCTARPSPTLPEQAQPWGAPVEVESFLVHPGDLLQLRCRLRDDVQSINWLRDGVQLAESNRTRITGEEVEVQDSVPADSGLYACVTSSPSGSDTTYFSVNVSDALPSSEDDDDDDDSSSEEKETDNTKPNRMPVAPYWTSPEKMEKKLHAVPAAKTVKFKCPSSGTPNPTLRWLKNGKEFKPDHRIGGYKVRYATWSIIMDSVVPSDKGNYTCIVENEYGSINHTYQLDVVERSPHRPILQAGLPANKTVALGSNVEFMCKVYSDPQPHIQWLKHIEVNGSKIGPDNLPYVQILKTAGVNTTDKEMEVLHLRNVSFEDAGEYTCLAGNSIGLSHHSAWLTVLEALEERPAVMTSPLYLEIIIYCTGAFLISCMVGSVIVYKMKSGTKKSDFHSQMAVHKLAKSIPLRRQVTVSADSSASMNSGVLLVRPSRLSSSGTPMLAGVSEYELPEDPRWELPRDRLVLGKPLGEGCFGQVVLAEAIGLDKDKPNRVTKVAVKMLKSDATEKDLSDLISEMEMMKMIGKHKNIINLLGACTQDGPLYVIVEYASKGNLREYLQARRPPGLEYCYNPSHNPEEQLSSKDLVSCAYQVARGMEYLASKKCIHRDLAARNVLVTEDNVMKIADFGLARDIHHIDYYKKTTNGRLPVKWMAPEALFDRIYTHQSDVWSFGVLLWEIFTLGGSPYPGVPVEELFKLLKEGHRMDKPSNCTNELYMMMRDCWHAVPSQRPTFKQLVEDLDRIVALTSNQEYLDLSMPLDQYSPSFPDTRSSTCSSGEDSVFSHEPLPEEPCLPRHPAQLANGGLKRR

[6] = Microsomal stability in human liver microsomes assessed as half life preincubated for 10 mins followed by NADPH addition measured upto 60 mins by LC-MS/MS analysis; format: ADME, Microsome; conditions: time < 70 min
[7] = Permeability of the compound at 10 uM preincubated in acceptor compartment for 16 hrs followed by 16 hrs incubation in donor compartment by PAMPA based LC-MS/MS analysis; format: ADME; conditions: time 32 hrs, read-out: permeability
[8] = Microsomal stability in human liver microsomes assessed as intrinsic clearance preincubated for 10 mins followed by NADPH addition measured upto 60 mins by LC-MS/MS analysis; format: ADME, Microsome; conditions: time < 70 min, read-out: CLH

COc1cc2nccc(Oc3ccc(NC(=O)NC4CC4)c(Cl)c3)c2cc1C1CCN(C(=O)/C=C/C(F)(F)F)CC1
IC50 (Hep 3B2): > 10000 nM | IC50 (Huh-7): 103 nM | IC50 [1]: 12.4 nM

C=CC(=O)N1CCC(c2cc3c(Oc4ccc(NC(=O)NC5CC5)c(Cl)c4)ccnc3cc2OCC(F)(F)F)CC1
IC50 (Hep 3B2): 30.2 nM | IC50 (Huh-7): 15.5 nM | IC50 [1]: 14.5 nM

C=CC(=O)N1CCC(c2cc3c(Nc4ccc(OCc5ccccn5)c(Cl)c4)ccnc3cc2OC)CC1
IC50 (Hep 3B2): 4020 nM | IC50 (Huh-7): > 10000 nM | inhibition [2]: 17.1%

C=CC(=O)N1CC=C(c2cc3c(Oc4ccc(NC(=O)NC5CC5)c(Cl)c4)ccnc3cc2OC)CC1
IC50 (Hep 3B2): 66.2 nM | IC50 (Huh-7): 54.3 nM | IC50 [1]: 2.88 nM

C=CC(=O)N1CCC(c2cc3c(Oc4ccc(NC(=O)NC5CC5)c(OCC)c4)ccnc3cc2OC)CC1
IC50 (Hep 3B2): 509 nM | IC50 (Huh-7): 356 nM | inhibition [2]: 10.7%

C=CC(=O)N1CCC(c2cc3c(Oc4ccc(NC(=O)NC5CC5)c(Cl)c4)ccnc3cc2OC)C(C)C1 (stereo not given)
IC50 (Hep 3B2): 13.3 nM | IC50 (Huh-7): 16.9 nM | IC50 [1]: 5.73 nM

C=CC(=O)N1CCC(c2cc3c(Oc4ccc(NC(=O)NC5CC5)c(Cl)c4)ccnc3cc2OC(C)C)CC1
IC50 (Hep 3B2): 63.6 nM | IC50 (Huh-7): 37.8 nM | IC50 [1]: 17 nM

C=CC(=O)N1CCC(c2cc3c(Oc4ccc(/N=C5\CCCN5C)c(Cl)c4)ccnc3cc2OC)CC1
IC50 (Hep 3B2): > 10000 nM | IC50 (Huh-7): > 10000 nM

COc1cc2nccc(Oc3ccc(NC(=O)NC4CC4)c(Cl)c3)c2cc1C1CCN(C(=O)/C=C/CN(C)C)CC1
IC50 (Hep 3B2): 30 nM | IC50 (Huh-7): 26.1 nM | IC50 [1]: 4.6 nM

C=CC(=O)N1CCC(c2cc3c(Oc4ccc(NC(=O)NC5CC5)c(F)c4)ccnc3cc2OC)CC1
IC50 (Hep 3B2): 30.2 nM | IC50 (Huh-7): 21.1 nM | IC50 [1]: 18 nM

COc1cc2nccc(Oc3ccc(NC(=O)NC4CC4)c(Cl)c3)c2cc1C(N)=O [LENVATINIB]
IC50 (Hep 3B2): 696 nM | IC50 (Huh-7): 851 nM | IC50 [3]: 11 nM | pKa [4]: 5.27 | IC50 [5]: 66 nM | half-life [6]: 22.4 min | Papp at 16 h, 10 µM [7]: 9.27 ×10⁻⁶ cm/s | microsomal CLint [8]: 74.1 µL/min/mg

C=CC(=O)N1CCC(c2cc3c(Oc4ccc(NC(=O)C5(C(=O)Nc6ccc(F)cc6)CC5)cc4)ccnc3cc2OC)CC1
IC50 (Hep 3B2): 3930 nM | IC50 (Huh-7): > 10000 nM | inhibition [2]: -2.1%

[2H]C([2H])([2H])Oc1cc2nccc(Oc3ccc(NC(=O)NC4CC4)c(Cl)c3)c2cc1C1CCN(C(=O)C=C)CC1
IC50 (Hep 3B2): 72.6 nM | IC50 (Huh-7): 17.8 nM | IC50 [1]: 7.04 nM

C=CC(=O)N1CCC(c2cc3c(Oc4ccc(NC(=O)c5c(C)n(C)n(-c6ccccc6)c5=O)cc4F)ccnc3cc2OC)CC1
IC50 (Hep 3B2): 450 nM | IC50 (Huh-7): 1710 nM
